Reference: ChEMBL document CHEMBL1201862, “PubChem BioAssay data set” (2004)
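A five-concentration, 48-hour dose response in 96-well plates underlies each endpoint, interpolated linearly between surrounding concentrations. GI50 marks 50% less growth.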 Calls of active or inactive are those of the source. No stated cut-off is given here; in the data, active = GI50 up to about 1.1 µM and inactive = higher.

Assays:
Assay in all cases: NCI-60 cell line screen, 48 h
SNB-78 = system: SNB-78
NCI/ADR-RES = system: NCI/ADR-RES
SF-539 = system: SF-539
HOP-18 = system: HOP-18
KM-20L2 = system: KM-20L2
DMS-273 = system: DMS-273
HOP-62 = system: HOP-62
SK-MEL-28 = system: SK-MEL-28
DLD-1 = system: DLD-1
OVCAR-4 = system: OVCAR-4
HT-29 = system: HT-29
DMS-114 = system: DMS-114
OVCAR-8 = system: OVCAR-8
SF-295 = system: SF-295
DU-145 = system: DU-145
PC-3 = system: PC-3
T47D = system: T47D
TK-10 = system: TK-10
MDA-MB-231 = system: MDA-MB-231
XF498 = system: XF498

Measured: GI50

C=C1C(=O)OC2C=C(C)CC3C=C(CCC=C(C)CCC12)C(=O)O3 (stereo unspecified)
inactive: SNB-78 66.4 µM | NCI/ADR-RES 62.8 µM | SF-539 84.5 µM | HOP-18 51.3 µM | KM-20L2 52.7 µM | DMS-273 68.1 µM | HOP-62 114 µM | SK-MEL-28 58.1 µM | DLD-1 54.5 µM | OVCAR-4 72.3 µM | HT-29 67 µM | DMS-114 65.9 µM | OVCAR-8 72.3 µM | SF-295 79.4 µM

CC(C)CNC1=NCC(C)S1 (stereo unspecified)
inactive: DU-145 > 100 µM | SF-539 > 100 µM | PC-3 > 100 µM | HOP-62 > 100 µM | SK-MEL-28 > 100 µM | T47D > 100 µM | HT-29 > 100 µM | TK-10 > 100 µM | SF-295 > 100 µM | MDA-MB-231 > 100 µM

O=C1C(Cl)N(c2ccccc2Cl)C1c1c[nH]c2ccccc12 (stereo unspecified)
inactive: XF498 > 100 µM | SF-539 > 100 µM | KM-20L2 > 100 µM | HOP-62 > 100 µM | SK-MEL-28 > 100 µM | OVCAR-4 > 100 µM | HT-29 > 100 µM | DMS-114 > 100 µM | OVCAR-8 > 100 µM | TK-10 > 100 µM | SF-295 > 100 µM

CNC(=O)N(C)COC
inactive: SNB-78 > 100 µM | XF498 > 100 µM | SF-539 > 100 µM | HOP-18 > 100 µM | KM-20L2 > 100 µM | HOP-62 > 100 µM | SK-MEL-28 > 100 µM | DLD-1 > 100 µM | OVCAR-4 > 100 µM | HT-29 > 100 µM | DMS-114 > 100 µM | OVCAR-8 > 100 µM | SF-295 > 100 µM

Cc1cn(Cc2cn(CC3OC(n4cc(C)c(=O)[nH]c4=O)CC3O)nn2)c(=O)[nH]c1=O (stereo unspecified)
inactive: DU-145 > 100 µM | NCI/ADR-RES > 100 µM | SF-539 > 100 µM | PC-3 > 100 µM | HOP-62 > 100 µM | SK-MEL-28 > 100 µM | OVCAR-4 > 100 µM | T47D > 100 µM | OVCAR-8 > 100 µM | TK-10 > 100 µM | SF-295 > 100 µM | MDA-MB-231 > 100 µM

O=C(O)CN1CCN(CC(=O)O)CCN(CC(=O)O)CC1
inactive: DU-145 > 100 µM | SF-539 > 25.3 µM | PC-3 > 28.5 µM | HOP-62 > 100 µM | SK-MEL-28 > 72.1 µM | OVCAR-4 34.1 µM | T47D > 100 µM | HT-29 3.55 µM | OVCAR-8 4.07 µM | TK-10 > 48.8 µM | SF-295 37.5 µM | MDA-MB-231 > 31.9 µM

O=c1c2cccnc2oc2c(Cl)cc(-c3nnn[nH]3)cc12
inactive: DU-145 > 100 µM | NCI/ADR-RES > 100 µM | SF-539 > 100 µM | PC-3 > 100 µM | HOP-62 > 100 µM | SK-MEL-28 > 100 µM | OVCAR-4 > 100 µM | T47D > 100 µM | HT-29 > 100 µM | OVCAR-8 > 100 µM | TK-10 > 100 µM | MDA-MB-231 > 100 µM

CC1OC(CO)(n2cnc3c(N)ncnc32)C(O)C1O (stereo unspecified)
inactive: SNB-78 > 100 µM | XF498 > 100 µM | NCI/ADR-RES > 100 µM | SF-539 > 100 µM | HOP-18 > 100 µM | KM-20L2 > 100 µM | DMS-273 > 100 µM | HOP-62 > 100 µM | SK-MEL-28 > 100 µM | DLD-1 > 100 µM | OVCAR-4 > 100 µM | HT-29 > 100 µM | DMS-114 > 100 µM | OVCAR-8 > 100 µM | SF-295 > 100 µM

C=C(/C=C/C=C(\C)CCC=C(C)C)[C@@H]1CC[C@]2([C@H](CCCO)/C(=C(/C)C=O)CC[C@]2(C)O)[C@@H]1O
inactive: SNB-78 17.7 µM | XF498 18.7 µM | SF-539 12.6 µM | HOP-18 23.9 µM | KM-20L2 29.3 µM | DMS-273 14.6 µM | SK-MEL-28 15.1 µM | DLD-1 18.4 µM | HT-29 15.8 µM | OVCAR-8 20.6 µM | TK-10 31.3 µM | SF-295 15.6 µM
